This note sets out measurements from article PMC10578927, “An unconventional gatekeeper mutation sensitizes inositol hexakisphosphate kinases to an allosteric inhibitor” (eLife, 2023).

For data set [1], the target named is T1, IP6K1^L210V (Homo sapiens, UniProt Q92551, L210V).
T1 construct: made in house; host or cells: E. coli Arctic Express
Briefly: High-throughput screen, reverse kinase reaction (5PP-InsP5 + ADP), Kinase-Glo luminescence. The format is biochemical. An excerpt: Although the NMR assay described above provides direct product detection and the ability to distinguish the PP-InsP isomers ([Harmel et al., 2019]), it is inherently slow and thus not compatible with a high-throughput screen. The use of luminescence-based readouts of ATP consumption to measure IP6K activity is error-prone due to the kinase’s unusually low affinity for ATP, the sensitivity to the ATP/ADP ratio, and its inherent ATPase activity ([Wundenberg et al., 2014]; [Voglmaier et al., 1996]). Nevertheless, we were able to take advantage of these properties by examining the reverse reaction of IP6K1 with the Kinase-Glo assay, where 5PP-InsP5 and ADP are converted to InsP6 and ATP (Figure 3a).
The following solutions were prepared as 4× stock solutions: kinase buffer (HEPES pH 7.4, NaCl, BSA, MgCl2, Tween-20, DTT, and IP6K1^L210V), DMSO/inhibitor, ADP, and 5PP-InsP5. Final concentrations after optimization were 1 mM ADP, 20 mM HEPES, 50 mM NaCl, 0.2 mg/ml BSA, 2 mM MgCl2, 0.05% Tween-20, 1 mM DTT, 250 nM IP6K1^L210V, and 50 μM 5PP-InsP5. The reactions were carried out in 384-well plates following this procedure. 5 µl 4× kinase buffer (buffer only for no kinase controls), 5 µl 4× DMSO or inhibitor and 5 µl 4× ADP solution were subsequently added to all wells. After 10 min equilibration, 5 μl 4× 5PP-InsP5 were added to start the reaction (milli-Q water for negative controls). After 3 hr at room temperature, 20 µl of Promega Kinase-Glo Plus reagent were added and the luminescence read out with a Tecan Infinite M Plex reader using 100-ms exposure time after 10 min of equilibration.
ADP was prepared in a 2× stock solution in milli-Q water and the pH adjusted to 7.0. The following solutions were prepared as 4× stock solutions: kinase buffer (HEPES pH 7.4, NaCl, BSA, MgCl2, Tween-20, DTT, and IP6K1^L210V) and 5PP-InsP5. Final concentrations were 1 mM ADP, 20 mM HEPES, 50 mM NaCl, 0.2 mg/ml BSA, 2 mM MgCl2, 0.05% Tween-20, 1 mM DTT, 250 nM IP6K1^L210V, and 50 µM 5PP-InsP5. The reactions were carried out in 384-well plates following this procedure. 10 µl 2× ADP solution were added to all wells, then 0.2 µl DMSO or compound (1 mM in DMSO) were added followed by the addition of 5 µl 4× kinase buffer. For dose–response curves, compounds were added in serial dilution (twofold serial dilutions in DMSO across multiple plates prior to compound transfer to assay plates, 9 concentrations in total). After 10 min equilibration, 5 µl 4× 5PP-InsP5 were added to start the reaction (milli-Q water for negative controls). After 3 hr at room temperature, 20 µl of Promega Kinase-Glo Plus reagent were added and the luminescence read out with a Tecan Infinite M Plex or Perkin Elmer EnVision reader using 100ms exposure time after 10 min of equilibration. In the counter screen, dose–response curves were measured in the absence of kinase and presence of 50 µM ATP.
For orientation: Kinase-Glo reads ATP consumption through a luciferase reaction.

For a further data set, the target named is T2, IP6K1^wt (Homo sapiens, UniProt Q92551).
T2 construct: made in house; host or cells: E. coli Arctic Express
The description is as above. The class given is biochemical. The settings on record: dose-dependent reconfirmation.

Data set [2] addresses T1, IP6K1^L210V. Briefly: Michaelis–Menten and Lineweaver–Burk kinetics (NMR). The format is biochemical. Conditions: versus ATP, two inhibitor concentrations. The method, then:
Kinetic assays were performed in D2O in a total volume of 500 µl containing the same buffer components for IP6K and IP6KA constructs as stated for the NMR activity assays above. […] If applicable, inhibitor was added as a DMSO-d6 stock at a final DMSO concentration of 1%. Otherwise, DMSO-d6 was added to the same percentage. The samples were equilibrated at 37°C for 5 min and the reaction initiated by adding 100 µM [^13C6]-InsP6. The reaction time was adjusted so that conversion would not exceed 20% to remain in the linear range for initial velocity measurements. The reaction was quenched with 38 µl 700 mM EDTA pH* 8.0 and transferred into an NMR tube before being measured on a Bruker […] 600 PLUS with an NMR pulse program developed previously ([Harmel et al., 2019]). Initial velocities were calculated by dividing the amount of generated product by the product of reaction time in seconds and mass of the kinase in mg.

For the next data set, the system named is HEK293. In words: Cytotoxicity, cell survival after 72 hr incubation. The settings on record: HEK293, 10 µM. The class given is cell-based. The method, then: (§1) Supplementary file elife-88982-supp2.xlsx: Supplementary file 2. Cytotoxicity of selected hits indicated by cell survival after 72 hr incubation at 10 µM concentration. All compounds were measured in independent triplicates and errors represent standard deviation. Redox activity of selected compounds measured via a photometric surrogate assay. Reactions contained 50 mM HEPES pH 7.5, 50 mM NaCl, 200 mM DTT, and 20 µM resazurin, and were incubated for 1 hr at 37°C.

Another data set has as its system HepG2. Briefly: Cytotoxicity, cell survival after 72 hr incubation. The settings on record: HepG2, 10 µM. The class given is cell-based. The method, then: as §1
The test system of the next data set is HCT116 cells. In words: Reverse transcription qPCR of 45S pre-rRNA transcript levels. The class given is cell-based. The settings on record: HCT116 cells treated 5 hr, RT-qPCR, preliminary experiment. The method, then:
Total RNA was extracted using the RNeasy kit from QIAGEN. cDNA was generated using Thermo Fisher Scientific SuperScript III Reverse Transcriptase and 2 µg RNA following the vendor’s protocol. […] The cDNA was diluted 10-fold before conducting qPCR using SYBR Green PCR Master Mix and a StepOnePlus RT PCR System. The difference in transcript levels was calculated using the ΔΔct method and technical triplicates.
In general terms: Quantitative PCR measures a nucleic acid by following its amplification.

T1 sequence (Q92551 whole entry L210V): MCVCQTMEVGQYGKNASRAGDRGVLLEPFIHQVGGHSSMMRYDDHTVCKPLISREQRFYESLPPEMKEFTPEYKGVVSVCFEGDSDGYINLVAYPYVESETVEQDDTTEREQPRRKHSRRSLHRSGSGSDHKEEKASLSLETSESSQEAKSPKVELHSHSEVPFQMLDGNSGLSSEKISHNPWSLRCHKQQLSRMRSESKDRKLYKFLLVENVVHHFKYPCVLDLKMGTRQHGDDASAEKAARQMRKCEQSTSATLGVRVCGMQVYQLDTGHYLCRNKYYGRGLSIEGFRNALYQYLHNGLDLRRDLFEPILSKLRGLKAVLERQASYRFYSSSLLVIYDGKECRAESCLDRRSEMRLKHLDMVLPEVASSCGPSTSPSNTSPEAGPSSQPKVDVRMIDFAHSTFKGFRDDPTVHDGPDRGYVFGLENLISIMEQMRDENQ
T2 sequence (Q92551 whole entry): as the sequence (Q92551 whole entry L210V) above, with V210L counted along it

In general, IC50 refers to the concentration that gives 50% inhibition. Regarding `O=C(O)c1ccc2c(c1)C(=O)N(c1ccc(-c3nc4ccc(N5C(=O)c6ccc(C(=O)O)cc6C5=O)cc4[nH]3)cc1)C2=O` [FMP-201300], the half-maximal inhibitory concentration (IC50) on IP6K1^L210V [1] (Kinase-Glo, reverse reaction, dose-dependent reconfirmation) turned out to be 1.6 µM; on IP6K1^wt it was 17 µM. Also, the Z-score at IP6K1^L210V [1] (primary screen, IP6K1^L210V) was -24.0. For the same molecule, the “%Activity” value on IP6K1^L210V [1] (primary screen, residual activity of IP6K1^L210V) is given as 12.5%. In addition, the “mechanism of inhibition (Lineweaver–Burk)” value at IP6K1^L210V [2] is “allosteric mechanism”. The cytotoxic result in the data set on HEK293 and with HepG2 was “nor cytotoxic” throughout. In addition, the “Cell number (%)” value is recorded as 100.1 ± 4.1% in the data set on HEK293 (72 hr incubation) and 99.1 ± 2.8% in the data set with HepG2 (72 hr incubation). The “reduction of ribosomal RNA synthesis (45S pre-rRNA transcript levels)” value in the data set on HCT116 cells is reported as “able to recapitulate this recently reported phenotype”.
